Calls of active or inactive are those of the source.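 Rule for the calls: active = compounds giving half or more protection of infected cells from virus-caused growth loss, again on retest; inactive = the rest.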 Where a SMILES comes first, the peptide text is derived from it. The star is where a group is joined. Boc = CC(C)(C)OC(=O)*
Tested on: CEM cells HIV-1 protection, formazan growth assay
Assay: NCI AIDS Antiviral Assay
Settings: for IC50: measured here: growth of uninfected CEM cells
How it was run: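 Protection of CEM cells against HIV-1 was scored from cell growth (soluble formazan) across five concentrations, with parallel uninfected cells. Lack of protection may reflect toxicity.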

SMILES | EC50 | IC50 | outcome
C[C@]12CC[C@@H]3c4ccc(OC(=O)c5ccccc5)cc4CC[C@H]3[C@@H]1CCC2OC(=O)c1cccc2c(=O)c3ccccc3[nH]c12 (some centres not stated) | > 151 µM | 7.94 µM | 
Oc1c(OCc2nnc(CCCCCCCCc3nnc(COc4ccc5ccccc5c4O)n3Nc3ccccc3)n2Nc2ccccc2)ccc2ccccc12 | > 2 µM | > 2 µM | 
N#CCCN(CCC#N)c1ccc(/C=C2\N=C(c3ccccc3)N(NC(=O)c3ccncc3)C2=O)cc1 | > 200 µM | 191 µM | 
COc1cc2c3c(c1)SC(C)C(=O)N3CCN2 (configuration not stated) | > 200 µM | 105 µM | 
Clc1ccc(CN2COc3c(cc(Cl)c4cccnc34)C2)cc1 | > 64.6 µM | 1.26 µM | 
COc1ccccc1OCc1nnc(SCC(=O)O)n1-c1ccccc1 | > 676 µM | > 676 µM | 
CC12CCC3CCCCC3(OO1)[C@@H](OCc1ccccc1)O2 (some centres not stated) | > 29.5 µM | > 29.5 µM | 
NCCN.O=C([O-])C(=O)[O-].O=C([O-])C(=O)[O-].[Co+3].[K+] | > 372 µM | 269 µM | 
Cc1ncc2c(=O)c3c(oc2n1)c1ccccc1n3Cc1ccccc1 | > 200 µM | > 200 µM | 
COc1ccc(OC)c(-c2csc(=O)s2)c1 | > 269 µM | > 269 µM | 
Cc1nc2c(=S)nc[nH]c2n1Nc1ccccc1 | > 200 µM | 72.4 µM | 
N#CS/C(C(Cl)=C(Cl)Cl)=C(/Cl)[N+](=O)[O-] | > 200 µM | 8.32 µM | 
O=C(CC(CC(=O)Oc1c(Br)cc(Br)cc1C(=O)O)C(=O)Oc1c(Br)cc(Br)cc1C(=O)O)Oc1c(Br)cc(Br)cc1C(=O)O | > 245 µM | 85.1 µM | 
COC(=O)c1cc2c3ccccc3n(C(C)=O)c2cn1 |  |  | inactive
Cn1c2ccccc2c2ncc3[nH]c4ccccc4c3c21 |  |  | inactive
O=C(NC1C/C(=N/O)c2c(Br)sc(Br)c21)C(F)(F)F (configuration not stated) | > 200 µM | 53.7 µM | 
Nc1nc(SSc2nc(N)nc3c2ncn3C2OC(CO)C(O)C2O)c2ncn(C3OC(CO)C(O)C3O)c2n1 (configuration not stated) | > 20 µM | 0.339 µM | 
N#C/C(=C/c1ccc(Cl)cc1)c1ccc(Cl)cc1 | > 200 µM | 195 µM | 
Nc1ccccc1C(=O)NNC(=O)c1ccccc1O | > 200 µM | 16.6 µM | 
CC(=O)Nc1ccc2nc(-c3ccccn3)c(-c3ccccn3)nc2c1 | 27.5 µM | > 200 µM | 
Nc1nc(=S)[nH]c(N)c1N=O | 85.1 µM | 120 µM | 
Cc1ccc(C(=O)O)c(O)c1 | > 1620 µM | 1050 µM | 

SMILES | EC50 | IC50 | outcome
C=CCOc1ccc(Sc2c(O)cc(-c3ccccc3)oc2=O)c(C(C)(C)C)c1 | > 200 µM | 31.6 µM | 
COc1ccc(C2OCC3C(c4ccc(OC)c(OC)c4)OCC23)cc1OC (configuration not stated) | > 200 µM | 97.7 µM | 
O=C1NN=C(c2ccc(Cl)cc2)CC1C1C(=O)N(c2ccccc2)N=C1c1ccccc1 (configuration not stated) | > 100 µM | 49 µM | 
OCC12COC(c3ccccc3)N1C(c1ccccc1)OC2 (configuration not stated) | > 200 µM | 11.2 µM | 
CN(Cc1c2ccccc2cc2ccccc12)S(=O)(=O)c1ccc(-c2c3nc(c(-c4ccc(S(=O)(=O)N(C)Cc5c6ccccc6cc6ccccc56)cc4)c4ccc([nH]4)c(-c4ccc(S(=O)(=O)N(C)Cc5c6ccccc6cc6ccccc56)cc4)c4nc(c(-c5ccc(S(=O)(=O)N(C)Cc6c7ccccc7cc7ccccc67)cc5)c5ccc2[nH]5)C=C4)C=C3)cc1 | > 100 µM | > 100 µM | 
CC1(C)COC(CCCCCNC2=NCCCCC2)=N1 | > 200 µM | > 200 µM | 
O=S(=O)(O)c1cc(O)c2ccc3c(S(=O)(=O)O)cc(S(=O)(=O)O)c4ccc1c2c34 |  |  | inactive
Cc1nc(Nc2nc3ccccc3[nH]2)[nH]c(=O)c1CCO | > 200 µM | > 200 µM | 
CC(C)(C)OC(=O)NC(Cc1ccccc1)C(=O)N1CCCC1C(N)=O (stereo not drawn) (Boc-Phe-Pro-NH2; configuration not given here) | > 200 µM | > 200 µM | 
CC(C)(C)C1(c2ccc(C3(c4ccccc4)Oc4ccccc4S3)[nH]2)Oc2ccccc2S1 (configuration not stated) |  |  | inactive
OCC1c2ccccc2-n2nc(-c3ccccc3)c(O)c21 (configuration not stated) | > 200 µM | 3.31 µM | 
CC(C)(C)OC1=C(OC(C)(C)C)C(O)(c2ccc(Cl)cc2)C1=O (configuration not stated) |  |  | inactive
NC(N)=NS(=O)(=O)c1ccc(NC(=O)c2cccc3c(Nc4ccc(S(=O)(=O)N=C(N)N)cc4)c4ccc(Cl)cc4nc23)cc1 | > 53.7 µM | > 53.7 µM | 
CC(C)(C)OC(=O)N1N=NC2C3CC(=O)C(O3)C21 (configuration not stated) | > 977 µM | 11 µM | 
O=C(Nc1ccccc1-c1ccccc1)c1ccccc1 | > 200 µM | 91.2 µM | 
c1ccc2c(c1)Nc1nsnc1N2 | > 27.5 µM | 7.08 µM | 
Cc1ccc(C(=O)NC(C)(C)C)cc1N=NN(C)C | > 138 µM | > 138 µM | 
CCCC/C=C(/CCCBr)[Si](C)(C)C | > 339 µM | > 339 µM | 
COC(=O)N1C[C@@]2(C=CC3(CC2)OCCO3)c2ccccc21 | > 200 µM | 3.55 µM | 
Cc1cn(C2CC(N=[N+]=[N-])C(COC(=O)CCCCCCCCCCOc3ccccc3)O2)c(=O)[nH]c1=O (configuration not stated) | 0.0468 µM | 110 µM | 
Nc1nc2n(n1)C(=O)C(=O)N2 | > 115 µM | > 115 µM | 
C=CCCC1CCCCC/C1=N\N(C)C (configuration not stated) | > 200 µM | > 200 µM | 

SMILES | EC50 | IC50 | outcome
C/C(=C\c1ccccc1)C(O)C(=O)c1nc2ccc([N+](=O)[O-])cc2[nH]c1=O (configuration not stated) |  |  | inactive
Cc1ccc(S(=O)(=O)NC(=O)C2S(=O)(=O)OCCOS2(=O)=O)cc1 | > 3890 µM | 77.6 µM | 
O=C1CC2CCCC23CC2(CCN13)OCCO2 (configuration not stated) |  |  | inactive
Cc1ccc(S(=O)(=O)OCCOC(Cc2ccccc2)n2cc(C)c(=O)[nH]c2=O)cc1 (configuration not stated) | > 200 µM | > 200 µM | 
CN1CCCc2cc(/C=C\c3ccnc4ccccc34)ccc21 | 0.0631 µM | 4.37 µM | 
CCSc1ccc2c3c(cccc13)C(=O)N(CCc1ccccn1)C2=O | > 200 µM | > 200 µM | 
NC(=S)N/N=C1\NC(=O)/C(=C/c2ccc3c(c2)OCO3)S1 | > 200 µM | 158 µM | 
COc1ccc(C(=O)NNC(=O)c2nsc3ccccc23)cc1 | > 41.7 µM | > 41.7 µM | 
O=C1OC(=O)C2C1C1(c3ccccc3)C(=O)C2(c2ccccc2)C(c2ccccc2)=C1c1ccccc1 (configuration not stated) |  |  | inactive
COc1cc2c(cc1OC)NC(C)=CC(C)=N2 | > 200 µM | > 200 µM | 
CCOC(=O)C(=Cc1cccnc1C)C(=O)OCC | > 692 µM | 8.32 µM | 
CC1(C)CN=C(Nc2ccc(F)cc2)S1 | > 200 µM | > 200 µM | 
O=C1/C(=C/c2cc3c(=O)c4ccccc4sc3s2)NC(=S)N1c1ccccc1 | > 200 µM | > 200 µM | 
N#CC1C2C=CC(CCC2)C1C#N (configuration not stated) | > 200 µM | > 200 µM | 
CCOc1ccc(NC(=O)C(=O)CC(=O)c2sc(NNC(C)=O)nc2C)cc1 | > 44.7 µM | > 44.7 µM | 
Cc1c(Cl)ccc2c1NC(=O)C2(O)CC(=O)c1ccc(Cl)cc1Cl (configuration not stated) | > 0.708 µM | > 0.708 µM | 
C=CC(C#CC#CCCCCCCC)O[Si](C)(C)C(C)(C)C (configuration not stated) |  |  | inactive
CC(=O)C(/C=N\C(N)=S)=C(\C)O | > 200 µM | > 200 µM | 
O=C1c2cc(O)c(O)cc2O[C@H](c2ccc(O)c(O)c2)[C@H]1O | > 200 µM | 170 µM | 
C=C1C(=O)OC2CC(C)C3(O)C=C(C(C)=O)C4(OC3CC12)C(=O)OC1CC(C)C(/C=C\C(C)=O)=CCC14 (configuration not stated) | > 37.2 µM | 19.1 µM | 
COC(=O)c1cc(C(=CC(=O)OC(C)(C)C)c2cc(Cl)c(OC)c(C(=O)OC)c2)cc(Cl)c1OC | > 100 µM | 14.1 µM | 
CC(=O)/C(N=Nc1ccc(-n2c(C)nc3ccccc3c2=O)cc1)=C(/C)O | > 200 µM | > 200 µM | 

SMILES | EC50 | IC50 | outcome
O=C(CCC/C(CC(=O)c1ccc(Cl)cc1)=N\NC(=O)c1cc2ccccc2cc1O)Nc1cccc([N+](=O)[O-])c1 |  |  | inactive
O=C(NNc1nc2ccccc2n2cccc12)Nc1ccc(Br)cn1 | > 200 µM | 46.8 µM | 
Cc1cc(Cl)ccc1N=C1NC(=O)C(CC(=O)Nc2cccc(Cl)c2)S1 (configuration not stated) |  |  | inactive
C[C@@H](c1ccccc1)C(CC#N)[C@H]1CCC[C@]1(O)C#Cc1ccc2c(c1)OCO2 (some centres not stated) | > 200 µM | 11.5 µM | 
CC1=CSC(O)(c2ccc(Cl)cc2)c2noc(=O)n21 (configuration not stated) | > 200 µM | 112 µM | 
CC(=O)N1C(Nc2cnc3ccccc3c2)CCN1c1ccccc1 (configuration not stated) | > 200 µM | 17.8 µM | 
O=S1CC(c2ccccc2)=C(c2ccccc2)CS1 (configuration not stated) | > 200 µM | 47.9 µM | 
COC[C@@H](N=CC(C)(C)C)C(C)C | > 200 µM | > 200 µM | 
CN1CCn2c(Br)ccc2C1=O | > 1100 µM | 64.6 µM | 
N#C/C(=C\n1ccc(=O)[nH]c1=S)c1nc2ccccc2s1 | > 200 µM | > 200 µM | 
CC(=O)N(C(C)=O)c1nc2c(c(=O)n(C)c(=O)n2C)n1C | > 200 µM | > 200 µM | 
N#CCC(O)CC#N |  |  | inactive
O=C(CC(=O)C(=O)CC(=O)OCc1ccccc1)OCc1ccccc1 | > 105 µM | 89.1 µM | 
Fc1c(F)c(F)c(S)c(F)c1F |  |  | active
Cc1cc2cc(Cl)ccc2nc1C(=O)c1ccccc1 | > 2.57 µM | > 2.57 µM | 
CCCc1cc(=O)[nH]c2c3c(c4c(c12)OC(C)(C)C=C4)O[C@H](C)[C@@H](C)[C@@H]3O | 0.12 µM | 2 µM | 
CCOC(=O)CC(C)OC1CCCCO1 (configuration not stated) |  |  | inactive
O=c1[nH]c(=O)n(C2CC(O)C(CO)O2)c2ncncc12 (configuration not stated) | > 200 µM | > 200 µM | 
Cc1nc(-c2ccc([N+](=O)[O-])cc2)cn2c1nc1ccccc12 | 457 µM | 501 µM | 
CC(=O)/C(=C/n1ccc(=O)[nH]c1=S)C(=O)Nc1ccccc1 | > 200 µM | > 200 µM | 
O=C(/C=C/c1ccccc1O)C(c1ccccc1)c1ccccc1 | > 12 µM | > 12 µM | 
O=C1CSC(/C=C/c2ccccc2)N1c1ccc(-n2c(-c3ccccc3)nc3ccccc3c2=O)cc1 (configuration not stated) | > 200 µM | 105 µM | 
